Reference: publication PMC7187627 (Antimicrobial Agents and Chemotherapy, 2019)
“Also recorded” adds a separate entry of the source.

Assay: Safety and tolerability (adverse events, laboratory tests, ECG), multiple-ascending-dose phase 1 study
Assay type: in vivo
Text: Subjects were monitored closely with serial physical examinations, blood evaluations, and 12-lead ECGs. Subjects underwent safety laboratory testing, including measurement of blood cell counts (white blood cell [WBC] with differential, hemoglobin, and platelets), serum chemistry (sodium, potassium, chloride, calcium, bicarbonate, glucose, creatinine, blood urea nitrogen [BUN], creatine kinase [CK], aspartate aminotransferase [AST], alanine aminotransferase [ALT], alkaline phosphatase [ALP], total bilirubin, protein, albumin, amylase, and lipase) and urinalysis (protein, blood, and glucose). Study halting criteria had been established and were reviewed by an independent safety monitor (ISM) and the Safety Monitoring Committee (SMC) prior to proceeding with dosing within a cohort or to the next cohort.
The safety population included all subjects who received at least one dose of the study drug. The safety and tolerability of CRS3123 were evaluated by the sequential review of reported adverse events (AEs), changes from baseline in physical examination findings, vital sign measurements, safety laboratory tests (hematology, clinical chemistry, and urinalysis), and key 12-lead ECG findings. All safety assessments were summarized with descriptive statistics or frequency counts.
The period of observation for AE reporting began on day 1 at the time of study drug administration and continued through the final visit.
All AEs were coded to system organ class (SOC) and preferred term (PT) using the Medical Dictionary for Regulatory Activities (MedDRA), version 17.0 (https://www.meddra.org/). A treatment-emergent AE (TEAE) was defined as any AE that occurred during the study observation period (i.e., from day 1 at the time of study drug administration through the final visit). An AE with a partial onset date was classified as a TEAE if the reported partial onset date could not definitely be identified as before the date of study drug administration. Any AE with a missing onset date or missing time on day of study drug administration was classified as a TEAE.
To count the overall number of subjects who experienced each TEAE and calculation of an occurrence rate, a subject experiencing multiple occurrences of an AE was counted only once for that PT. Similarly, if a subject experienced multiple TEAEs within the same SOC, that subject was counted once to calculate an occurrence rate for the SOC. To count the number of subjects who experienced each TEAE by severity classification (mild, moderate, severe, and life-threatening) and calculate an occurrence rate, a subject experiencing multiple occurrences of an AE of the same severity was counted once in that particular severity classification for that PT. If a subject experienced multiple occurrences of an AE of differing severities, only the most severe occurrence within each PT was counted.

[1] = 200, 400, 600 mg orally twice daily for 10 days
[2] = all TEAEs, Cohort A, 200 mg Q12h (n = 8)

## O=c1cc(NCCCN[C@@H]2CCOc3c(Br)cc(Br)cc32)[nH]c2ccsc12 [CRS3123]
12-lead ECG, all doses
  QTcF interval: no QTcF interval changes; also recorded: no prolongation of the QTcF interval
[1]
  deaths, serious adverse events, severe TEAEs: no serious adverse events (SAEs) or severe treatment-emergent adverse events (TEAEs) reported
  overall safety and tolerability: generally safe and well tolerated
Active groups (placebo 33.3%)
  proportion of subjects reporting at least one treatment-related AE: 12.5 % subjects
All TEAEs, All active (n = 24)
  No. (%) of subjects: Alanine aminotransferase increased: 3 (12.5)
  No. (%) of subjects: Amylase increased: 3 (12.5)
  No. (%) of subjects: Anxiety: 1 (4.2)
  No. (%) of subjects: Arthropod bite: 1 (4.2)
  No. (%) of subjects: Aspartate aminotransferase increased: 2 (8.3)
  No. (%) of subjects: Blood bilirubin increased: 1 (4.2)
  No. (%) of subjects: Blood calcium increased: 1 (4.2)
  No. (%) of subjects: Blood potassium increased: 1 (4.2)
  No. (%) of subjects: Blood pressure, diastolic, decreased: 1 (4.2)
  No. (%) of subjects: Blood pressure, diastolic, increased: 1 (4.2)
  No. (%) of subjects: Blood pressure, systolic, decreased: 0 (0.0)
  No. (%) of subjects: Blood pressure, systolic, increased: 1 (4.2)
  No. (%) of subjects: Diarrhea: 2 (8.3)
  No. (%) of subjects: Dry skin: 1 (4.2)
  No. (%) of subjects: Dysgeusia: 1 (4.2)
  No. (%) of subjects: Ear and labyrinth disorders (system organ class): 1 (4.2)
  No. (%) of subjects: Ear discomfort: 1 (4.2)
  No. (%) of subjects: Erythema: 1 (4.2)
  No. (%) of subjects: Gastrointestinal disorders (system organ class): 2 (8.3)
  No. (%) of subjects: General disorders and administration site conditions (system organ class): 1 (4.2)
  No. (%) of subjects: Headache: 2 (8.3)
  No. (%) of subjects: Hemoglobin decreased: 4 (16.7)
  No. (%) of subjects: Infections and infestations (system organ class): 1 (4.2)
  No. (%) of subjects: Infusion site thrombosis: 1 (4.2)
  No. (%) of subjects: Injury, poisoning, and procedural complications (system organ class): 1 (4.2)
  No. (%) of subjects: Investigations (system organ class): 15 (62.5)
  No. (%) of subjects: Lipase increased: 5 (20.8)
  No. (%) of subjects: Musculoskeletal and connective tissue disorders (system organ class): 1 (4.2)
  No. (%) of subjects: Myalgia: 1 (4.2)
  No. (%) of subjects: Nervous system disorders (system organ class): 3 (12.5)
  No. (%) of subjects: Oropharyngeal pain: 1 (4.2)
  No. (%) of subjects: Psychiatric disorders (system organ class): 1 (4.2)
  No. (%) of subjects: Respiratory, thoracic, and mediastinal disorders (system organ class): 2 (8.3)
  No. (%) of subjects: Skin and subcutaneous tissue disorders (system organ class): 2 (8.3)
  No. (%) of subjects: Subjects with TEAEs: 20 (83.3)
  No. (%) of subjects: Throat irritation: 1 (4.2)
  No. (%) of subjects: Upper respiratory tract infection: 1 (4.2)
  No. (%) of subjects: White blood cell count increased: 0 (0.0)
[2]
  No. (%) of subjects: Alanine aminotransferase increased: 1 (12.5)
  No. (%) of subjects: Amylase increased: 1 (12.5)
  No. (%) of subjects: Anxiety: 1 (12.5)
  No. (%) of subjects: Arthropod bite: 1 (12.5)
